# Experiments:
# [1] = tested on: STAT1 S727 phosphorylation; assay: STAT1 S727 phosphorylation by immunoblotting in MCF7 breast cancer cells; format: cell-based, human
# Description: (§1) STAT1 S727 phosphorylation was analyzed by immunoblotting using the following primary antibodies: Phospho-Stat1 (Ser727) (D3B7) Rabbit mAb #8826 (used at 1:1000 dilution) and Rabbit Ab #9177 (used at 1:500 dilution) from Cell Signaling Technology (Danvers, Mass.), and total-STAT1 Stat1 p84/p91 Antibody (M-22): sc-592 from Santa Cruz Biotechnology (Dallas, Tex.), used at 1:500 dilution. As a loading control an antibody against a housekeeping protein GAPDH (6C5 mouse monoclonal antibody from Abcam), was used at 1:1000 dilution.
# (§2) FIG. 3 illustrates the inhibition of basal STAT1 S727 phosphorylation by CDK8/19 inhibitors in human breast cancer cell lines.
# [2] = tested on: STAT1 S727 phosphorylation; assay: STAT1 S727 phosphorylation by immunoblotting in HCT116 colon carcinoma cells; format: cell-based, human; conditions: for inhibition of STAT1 S727 phosphorylation: HCT116, 24 hr treatment, different concentrations
# Description: as §1
# In the experiments shown in FIG. 2, this analysis was continued in HCT116 human colon carcinoma cells.
# [3] = tested on: STAT1 S727 phosphorylation; assay: In situ immunofluorescence staining for phospho-STAT1 S727 and total STAT1 in MCF7 cells; format: cell-based, human
# [4] = tested on: STAT1 in complexes with CDK8; assay: CDK8 immunoprecipitation from HCT116 cells, immunoblotted for total STAT1 or phospho-STAT1 S727; format: cell-based, human; conditions: HCT116, 24 hrs, 10 μM
# Description: To determine whether the effect of CDK8/19 inhibitors on STAT1 S727 phosphorylation involved direct interaction between CDK8 and STAT1, we have asked if STAT1 and CDK8 would co-immunoprecipitate, and if so, whether CDK8/19 kinase inhibition would affect STAT1 phosphorylation in complexes with CDK8.
# [5] = tested on: STAT1 S727 phosphorylation; assay: In situ immunofluorescence staining for phospho-STAT1 S727 and total STAT1 in HCT116 cells; format: cell-based, human
# [6] = tested on: STAT1 S727 phosphorylation; assay: STAT1 S727 phosphorylation by immunoblotting in MDA-MB-361 breast cancer cells; format: cell-based, human; conditions: MDA-MB-361, 6 hr, 5 μM
# Description: as §1, §2
# [7] = tested on: STAT1 S727 phosphorylation; assay: STAT1 S727 phosphorylation by immunoblotting in SKBR3 breast cancer cells; format: cell-based, human; conditions: SKBR3, 1 μM or 5 μM, after 30 min of treatment
# Description: as §1, §2
# [8] = tested on: STAT1 S727 phosphorylation; assay: STAT1 S727 phosphorylation by immunoblotting in LNCaP-LN3 derivatives (DV and DK); format: cell-based, human; conditions: treated for 5 hrs
# Description: as §1
# In the experiment shown in FIG. 1, human LNCaP-LN3 cells, an in vivo-derived metastatic variant of LNCaP prostate cancer cells were used. We have compared STAT1 S727 phosphorylation in two derivatives of LNCaP-LN3, one with shRNA knockdown of both CDK8 and CDK19 (CDK8 shRNA was expressed from lentiviral vector PHLB carrying blasticidin resistance marker; CDK19 shRNA was expressed from lentiviral vector pLKO.1 carrying puromycin resistance marker) (DK, double knockdown), and in control cells transduced with insert-free PHLB and pLK0.1 vectors (DV, double vector). […] The immunoblotting for phospho-STAT1 S727 (pSTAT1) and total STAT1 (tSTAT1) is shown in FIG. 1A, and image quantitation for the ratio of pSTAT1/tSTAT1 is shown in FIG. 1B. […]
# [9] = tested on: STAT1 S727 phosphorylation; conditions: Bancerek et al., 2013; cited from earlier work
# [10] = tested on: STAT1 S727 phosphorylation; assay: STAT1 S727 phosphorylation in whole-cell protein extracts of 293 cells; format: cell-based, human; conditions: 5 μM
# Description: (§3) Results are shown for three biological replicates.
# as §1
# [11] = tested on: proteins bound at NFκB-regulated and housekeeping genes; assay: Chromatin immunoprecipitation (ChIP) with quantitative real-time PCR in 293 cells; format: cell-based, human
# Description: Sonicated chromatin was immunoprecipitated with the antibodies against the indicated proteins. The ChIP preps were used for quantitative real-time PCR amplification of different segments of the indicated genes (X-axes show the positions of the tested segments relative to transcription start sites). The results of this analysis for all four conditions (blue, control; red, Senexin A; green, TNFα; purple, TNFα plus Senexin A) are shown, with the genomic positions of the PCR primers diagrammed at the top of the figure.
# (Burke et al., 2014) have recently shown that STAT1 cooperates with NFκB in the induction of CXCL1 and CXCL2 transcription by IL-1β in rat insulinoma cells. We have therefore tested whether TNFα-induced CXCL1 and CXCL2 transcription in HEK-293 cells involves STAT1 and whether pSTAT1 in this system is affected by CDK8/19 inhibition. This analysis was conducted by chromatin immunoprecipitation (ChIP) of 293 cells that were pre-treated with 5 μM CDK8/19 inhibitor Senexin A (Porter et al., 2012) or carrier for one hour, at which point either TNFα at 10 ng/ml or carrier was added for 30 min. Sonicated chromatin was extracted as described (Galbraith et al., 2013) and immunoprecipitated with the antibodies against the indicated proteins. […] The results of this analysis for all four conditions (untreated, Senexin A, TNFα, and TNFα plus Senexin A) are shown in FIG. 5, with the genomic positions of the tested ChIP primers diagrammed at the top of the figure.
# [12] = tested on: Pol II CTD phosphorylation; assay: Immunoblotting of total Pol II CTD phosphorylation in whole-cell lysates of 293 cells; format: cell-based, human; conditions: 293 whole-cell lysates, same conditions as the ChIP
# Description: as §3
# [13] = tested on: TNFα-induced CXCL1 and CXCL2 transcription; assay: Induction of NFκB-regulated genes by TNFα in HEK-293 cells; format: cell-based, human
# [14] = 5 μM pre-treatment one hour, TNFα 10 ng/ml 30 min
molecule,measurement,setting,value
CN1CCN(C(=O)c2ccc3cc(CCNc4ncnc5ccc(C#N)cc45)ccc3c2)CC1 [Senexin B],"inhibition of STAT1 S727 phosphorylation, concentration series","[1]; MCF7, 24 hr treatment, indicated concentrations",concentration-dependent inhibition
same,inhibition of STAT1 S727 phosphorylation,"[1]; MCF7, 24 hr, 5 μM, two antibodies (#8826 and #9177)",inhibition of STAT1 S727 phosphorylation
same,treatment time after which inhibition of STAT1 S727 phosphorylation is noticeable,"[2]; HCT116, 5 μM",15 min
same,treatment time after which inhibition of STAT1 S727 phosphorylation is very strong,"[2]; HCT116, 5 μM",1 h
same,inhibition of STAT1 S727 phosphorylation,[2],concentration-dependent inhibition
same,staining with phospho-STAT1 S727 antibody in situ,[3],inhibition of STAT1 S727 phosphorylation
same,staining with the antibody against total STAT1,[3],no apparent effect
same,binding of total STAT1 to CDK8 (co-immunoprecipitation),[4],does not affect the binding of total STAT1
same,phospho-STAT1 S727 in CDK8 immunoprecipitate,[4],inhibits its phosphorylation at S727
same,staining with phospho-STAT1 S727 antibody in situ,[5],inhibition of STAT1 S727 phosphorylation
same,staining with the antibody against total STAT1,[5],no apparent effect
same,inhibition of STAT1 S727 phosphorylation,[6],inhibits STAT1 S727 phosphorylation
same,"inhibition of STAT1 S727 phosphorylation, time course",[7],strong inhibition
same,concentration from which STAT1 S727 phosphorylation plateaus at a low level,[8]; LNCaP-LN3 DV and DK cells,1 µM
same,concentration from which basal STAT1 S727 phosphorylation is decreased (lowest concentration),"[8]; LNCaP-LN3 cells, pSTAT1/tSTAT1 ratio",16 nM
CN(C)C1CC23CCC4(O2)C(=CCC2(C)C(c5ccc6ccncc6c5)=CCC24)C=C3C(O)C1O (stereo not drawn) [16-didehydro-cortistatin A],inhibition of STAT1 S727 phosphorylation,[2],inhibited STAT1 S727 phosphorylation similarly to Senexin B
CN1CC[C@H](c2c(O)cc(O)c3c(=O)cc(-c4ccccc4Cl)oc23)[C@H](O)C1 [flavopiridol],enhancement of STAT1 S727 phosphorylation by LPS or anisomycin,[9],failed to inhibit
Cortistatin A,inhibition of STAT1 S727 phosphorylation,[2],concentration-dependent inhibition
N#Cc1ccc2ncnc(NCCc3ccccc3)c2c1 [Senexin A],STAT1 S727 phosphorylation in whole-cell protein extracts,[10],strongly inhibited
same,treatment time after which the effect on STAT1 S727 phosphorylation is noticeable,[10],15 min
same,treatment time after which the effect on STAT1 S727 phosphorylation is very strong,[10],1 h
same,Pol II recruitment and distribution along the regulated genes,[11]; [14],moderate effect
same,recruitment of p65 subunit of NFκB and CDK8 to promoters of NFκB-regulated genes,[11]; [14],little or no effect
same,phospho-STAT1 S727 (pSTAT1) at CXCL1,"[11]; 5 μM, TNFα",a strong effect
same,phospho-STAT1 S727 (pSTAT1) at NFKBIA,"[11]; 5 μM, TNFα",a weaker effect
same,phospho-STAT1 S727 (pSTAT1) at the housekeeping genes,"[11]; 5 μM, TNFα",little or no effect
same,"Pol II CTD phosphorylation (S5P, S2P) at the strongly regulated genes","[11]; 5 μM, TNFα, CXCL1 and CXCL2",strongly inhibited
same,association of pSTAT1 with any of the tested genes,"[11]; absence of TNFα, total of 90 min treatment",unaffected
same,total Pol II CTD phosphorylation,[12],not significantly affected
same,regulation of housekeeping genes HGPRT and GAPDH,[13],not regulated
same,inhibition of TNFα induction of CXCL1,"[13]; 5 μM, TNFα 10 ng/ml",~10 fold
same,inhibition of TNFα induction of CXCL2,"[13]; 5 μM, TNFα 10 ng/ml",~10 fold
same,inhibition of TNFα induction of NFKBIA,"[13]; 5 μM, TNFα 10 ng/ml",~1.4 fold

# Source: patent US20170115308A1, “ASSAY TO MEASURE EFFICACY OF CDK8/19 INHIBITORS” (SENEX BIOTECHNOLOGY, INC., priority 2014, published 2017)
